Assay results: article PMC12006963, “Application of Deuterium in an M1 Positive Allosteric Modulator Back-Up Program: The Discovery of VU6045422” (ACS Chemical Neuroscience, 2025)

How the values were obtained:
[1] = Hepatocyte metabolite identification (human); type: in vitro ADME; conditions: human hepatocytes; for % Total Peak Area, oxidative metabolite formed: 2 from 1, 4 from 3, 6 from 5
Protocol: (§1) Prior to full characterization of deuterated analogues 3 and 5, they were incubated in rat, dog, monkey, and human hepatocytes, along with 1, to determine the amount of parent remaining, as well as the degree of undesired oxidative metabolites 2, 4, and 6 (Figure 2). […] For the gem-dideutero congener 3, metabolic stability was improved in vitro. […] Thus, in hepatocytes in vitro, the kinetic isotope effect engendered greater metabolic stability of the labile hot spot on the lactam. It remained to be seen if this effect would translate in vivo, but we first had to assess the impact of the deuterated analogues on molecular pharmacology, in vitro DMPK, standard low-dose in vivo DMPK and, if warranted, in vivo efficacy in a rat novel object recognition (NOR) behavioral assay.

[2] = target: T1, M1 (Homo sapiens, UniProt P11229); test: M1 PAM activity of oxidative metabolites; type: cell-based; conditions: in words
T1 construct: expressed in transfected cells
T1 sequence (P11229 1-460): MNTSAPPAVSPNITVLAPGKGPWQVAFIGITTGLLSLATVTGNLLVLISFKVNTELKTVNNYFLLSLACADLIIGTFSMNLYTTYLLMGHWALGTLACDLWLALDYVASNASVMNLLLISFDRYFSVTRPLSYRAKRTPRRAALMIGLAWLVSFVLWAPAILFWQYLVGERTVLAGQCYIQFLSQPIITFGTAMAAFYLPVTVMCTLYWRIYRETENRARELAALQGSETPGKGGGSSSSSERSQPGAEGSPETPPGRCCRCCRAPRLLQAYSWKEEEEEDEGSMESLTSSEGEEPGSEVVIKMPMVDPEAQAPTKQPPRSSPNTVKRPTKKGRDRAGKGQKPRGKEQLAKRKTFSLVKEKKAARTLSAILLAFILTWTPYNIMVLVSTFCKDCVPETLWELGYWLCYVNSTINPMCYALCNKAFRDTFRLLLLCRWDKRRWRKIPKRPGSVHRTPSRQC
Protocol: Procedures for Biological Experiments
Calcium mobilization assays:
All functional cell-based assays were performed in stable Chinese Hamster Ovary (CHO) cell lines constitutively expressing human M5 or human M1 receptors. For full muscarinic selectivity, CHO cells expressing human M3, human M2 plus Gqi5 or human M4 plus Gqi5 were used. Cells were plated at 15,000 cells per 20 µL per well in black 384-well, TC-treated, clear-bottomed plates (Greiner) in Ham’s F12 medium supplemented with 10% FBS and 20 mM HEPES. Cells were incubated overnight at 37 °C under 5% CO2. The following day, the medium was removed and replaced with 1.2 µM Fluo-4 AM (Invitrogen) in assay buffer (Hank’s Balanced Salt Solution supplemented with 20 mM HEPES and 2.5 mM Probenecid, pH 7.4) and the cells were incubated for 50 minutes at 37 °C under 5% CO2. Dye was then removed and replaced with 20 µL of fresh assay buffer. Test compounds at a 10 mM concentration in DMSO were serially diluted in DMSO (either 1:3 or 1:5 dilution) to create a 10-point concentration series. The DMSO solutions were then diluted in assay buffer resulting in compound solutions at 2-times the final assay concentration with the highest assay concentration of 30 µM. The compound plate, cell plate, and plates containing EC20 and EC80 acetylcholine concentrations were placed in a Hamamatsu FDSS 6000 or 7000 kinetic imaging plate reader equipped to measure Ex480/Em540 fluorescence. Data were collected at 1 frame per second. After 2 seconds of collecting baseline fluorescence, 20 µL of the compound solutions were added to the cell plate. This was followed by the addition of an EC20 concentration of acetylcholine at 142 seconds. […] The fluorescence signal was collected for a total of 300 seconds. […] Data were imported and analyzed in Dotmatics Informatics software. by normalizing all data in the individual kinetic traces to the initial fluorescence read. The magnitude of each agonist addition was then determined and normalized to the average maximum response. […] The IC50 determined using the EC80 of acetylcholine is the value reported. […]

[3] = Hepatocyte metabolite identification (dog); type: in vitro ADME; conditions: dog hepatocytes; 2 from 1, 4 from 3, 6 from 5
Protocol: as §1

[4] = Hepatocyte metabolite identification (rat); type: in vitro ADME; conditions: rat hepatocytes; 2 from 1, 4 from 3, 6 from 5
Protocol: as §1

[5] = Hepatocyte metabolite identification (monkey); type: in vitro ADME; conditions: monkey hepatocytes; for % Total Peak Area, oxidative metabolite formed: 2 from 1, 4 from 3, 6 from 5
Protocol: as §1

[6] = Dog MTD with pharmacokinetics study; type: in vivo; conditions: dog MTD; for ratio AUC (%) / ratio Cmax (%): 6 relative to 5; for AUC / Cmax: plasma
Description: (§2) To this end, we prepared a 200 g lot of PAM 5 and performed, in parallel, a dog maximum tolerated dose (MTD) with a pharmacokinetics study and a 14-day rat exploratory toxicology and toxicokinetic study, quantifying plasma Cmax and AUC for both parent 5 and metabolite 6. […] Moreover, while exposure increased with dose, it was nonlinear. […] The series was terminated based on (1) poor and less than dose-proportional increases in systemic exposure, (2) lack of a kinetic isotope effect to diminish production of 6 in dogs and rats, and (3) strong likelihood of even higher concentrations of 6 to be present in man.

[7] = Rat 14-day exploratory toxicology and toxicokinetic study; type: in vivo; conditions: rat 14-day study; for ratio AUC (%) / ratio Cmax (%): 6 relative to 5
Description: as §2

[8] = design: method as in doi:10.1002/alz.045339, doi:10.1016/j.jagp.2021.01.038; conditions: humans, phase I, upon increasing dose of 1; cited from earlier work
[9] = day 14, 300 mg/kg PO of 5, plasma
[10] = day 14, 750 mg/kg PO of 5, plasma
[11] = day 14, 1500 mg/kg PO of 5, plasma

## [2H]C1(O)c2ncccc2C(=O)N1Cc1c(F)cc(-c2cccc3nn(C)cc23)cc1F (stereo not shown) [compound 4]
[1]
  reduction in oxidative metabolite production versus 2 from 1: 50%
  % Total Peak Area, oxidative metabolite formed: 15.2%
[2]
  M1 PAM activity: inactive
[3]
  % Total Peak Area, oxidative metabolite formed: 5.5%
[4]
  % Total Peak Area, oxidative metabolite formed: 7.8%
[5]
  reduction in oxidative metabolite production versus 2 from 1: > 50%
  % Total Peak Area, oxidative metabolite formed: 30.3%

## [2H]C1(O)c2ncccc2C(=O)N1Cc1c(F)cc(-c2cccc3nn(C([2H])([2H])[2H])cc23)cc1F (stereo not shown) [compound 6]
[1]
  % Total Peak Area, oxidative metabolite formed: 4.9%
[6]; 30 mg/kg PO of 5
  ratio AUC (%): 18%
  ratio Cmax (%): 19%
  AUC: 6240 ng·h/mL
  Cmax: 455 ng/mL
[6]; 300 mg/kg PO of 5
  ratio AUC (%): 21%
  ratio Cmax (%): 23%
  AUC: 14100 ng·h/mL
  Cmax: 818 ng/mL
[6]; 1000 mg/kg PO of 5
  ratio AUC (%): 19%
  ratio Cmax (%): 17%
  AUC: 19200 ng·h/mL
  Cmax: 972 ng/mL
[2]
  M1 PAM activity: inactive
[3]
  % Total Peak Area, oxidative metabolite formed: 4.1%
[4]
  % Total Peak Area, oxidative metabolite formed: 8.1%
[7]; day 14, 300 mg/kg PO of 5
  ratio AUC (%): 28%
  ratio Cmax (%): 30%
[7]; [9]
  AUC at 14 days: 89500 ng·h/mL
  Cmax at 14 days: 6740 ng/mL
[7]; day 14, 750 mg/kg PO of 5
  ratio AUC (%): 23%
  ratio Cmax (%): 23%
[7]; [10]
  AUC at 14 days: 125000 ng·h/mL
  Cmax at 14 days: 7340 ng/mL
[7]; day 14, 1500 mg/kg PO of 5
  ratio AUC (%): 28%
  ratio Cmax (%): 32%
[7]; [11]
  AUC at 14 day: 143000 ng·h/mL
  Cmax at 14 days: 9890 ng/mL
[5]
  % Total Peak Area, oxidative metabolite formed: 21%
[5]; listed as VU6045587
  % Total Peak Area, oxidative metabolite formed: 21.0%

## Cn1cc2c(-c3cc(F)c(CN4C(=O)c5cccnc5C4O)c(F)c3)cccc2n1 (stereo not shown) [compound 2]
[1]
  % Total Peak Area, oxidative metabolite formed: 34.9%
[2]
  M1 PAM activity: inactive
[3]
  % Total Peak Area, oxidative metabolite formed: 28.3%
[4]
  % Total Peak Area, oxidative metabolite formed: 23.7%
[8]
  share of the total drug-related area under the curve (AUC): > 50%
[5]
  % Total Peak Area, oxidative metabolite formed: 74.3%
